Columns and labels:
[1] = target: T1, Aβ1–42 fibrils (Homo sapiens, UniProt P05067); assay: Fluorescence binding assay of 5 with preformed Aβ1–42 fibrils; settings: preformed Aβ1–42 aggregates in PBS, single site binding model
T1 construct: Commercially available amyloid peptide Aβ1-42; purchased
Experimental: For assessing the ability of 5 to bind Aβ plaques; preliminary binding assays with preformed Aβ1–42 fibrils were performed in PBS. […] Additionally, it is also noteworthy that no fluorescence was observed using Aβ aggregates alone in PBS following excitation at 392 nm (a negative control).
(§1) Scientific Reports Version of August 4, 2016
Preparation of Aβ fibrils.
Commercially available amyloid peptide Aβ1-42 (433 µg) was gently dissolved in PBS (1 mL, pH 7.4, 100 µM)5. The solution was incubated for 36-48 h at 37°C with continuous gentle shaking to avoid gel formation at the meniscus. The aggregated peptide suspension was stored at -80°C until needed (the […]
Binding of 5 with Aβ fibrils
In vitro binding assays to preformed fibrils were performed using literature procedures. […]
indicating binding to Aβ aggregates, similar to enhancement in fluorescence of thioflavin-T in PBS (a positive control; data not shown). Additionally, it is also noteworthy that no fluorescence was observed using Aβ aggregates alone in PBS upon excitation at 410 nm (a negative control). All measurements were made in triplicates; fluorescence of either 5 alone or fibrils at a given concentration was subtracted. […]
SI Figure 2. […] All measurements were made in triplicates; fluorescence of either 5 alone or fibrils at a given concentration was subtracted. […]

[2] = target: T2, Aβ plaques (Homo sapiens, UniProt P05067); assay: Histochemical staining of mouse brain hippocampus sections; set-up: species or system mice; settings: 10 months old
Excerpt: Aβ imaging ligands and disease-modifying therapeutics have been investigated using APP^+/−/PS1^+/− transgenic mice models. Further, we assessed the ability of 5 to stain ex vivo brain sections (50 μm) of age-matched APP^+/−/PS1^+/− mice and their WT (BL/6) counterparts, using established procedures. As a positive control, anti-Aβ monoclonal antibody (mHJ3.4 conjugated to Alexa Fluor 568) was used[34]. […] By comparison, 5 indicated no staining in 10 months old WT mice (SI, Fig. 3) thus indicating its target specificity.
as §1
(§2) µm) were cut in the coronal plane on a freezing sliding microtome and stored at -20°C. 7,8 Tissue was stained as free-floating sections. Prior to staining, tissue sections were permeabilized with PBS-Tritron-X-100 (0.25%) for 30 minutes, and then blocked with 1% non-fat dry milk in PBS-Ttiton-X-100 for 60 minutes.
Hippocampus tissue sections of APP+/-/PS1+/- and age-matched control BL/6 (WT, SI Figure 3) were incubated with fluorescent molecule 5 (100 nM dissolved in 1% ethanol in PBS) for 60 minutes, and washed 3-times with PBS-Triton-X-100.9 Thereafter, tissue sections were incubated with mouse-anti-Aβ (mHJ3.4) 7 that was directly conjugated to Alexa 568 for 90 minutes and washed 3-times with PBS-Triton-X-100. […]

[3] = target: T2, Aβ plaques; assay: Histological staining of human AD brain tissue sections
Experimental: To further assess ability of the 5 to label Aβ plaques in human brain, staining experiments were also performed with postmortem tissues from clinically-characterized AD patients[35][36] As a positive control, a highly specific anti-Aβ antibody (10D5, Eli Lilly, Indianapolis, IN) was used to ascertain the presence of Aβ plaques (Fig. 4A), using well-established procedures for assessment of Aβ plaques in postmortem brain[37]. […] Noticeably, 5 also indicated proficient and distinct labeling of plaque and leptomeningeal vessels (cerebral amyloid angiopathy; CAA) (Fig. 4B). […] This high specificity of 5 for Aβ could be attributed to presence of a benzoselenazole ring within Fluselenamyl. Overall, the ability and sensitivity of 5 to detect diffuse plaques and specificity for AD could represent an important advancement to enable PET imaging of mildly demented individuals, prior to onset of symptoms.
as §1, §2
Hippocampus tissue sections of APP+/-/PS1+/- and age-matched control BL/6 (WT, SI Figure 3) were incubated with fluorescent molecule 5 (100 nM dissolved in 1% ethanol in PBS) for 60 minutes, and washed 3-times with PBS-Triton-X-100.9 Thereafter, tissue sections were incubated with mouse-anti-Aβ (mHJ3.4) 7 that was directly conjugated to Alexa 568 for 90 minutes and washed 3-times with PBS-Triton-X-100.
Tissue sections were mounted onto SuperFrost Plus slides, dried overnight at room temperature, and then sealed with Fluoromount G (Southern Biotech, Birmingham, AL). […]
other neurodegenerative diseases (SI, Figure 4A & 4B). Sections were visualized, processed, and analyzed using a Pascal confocal microscope. […]

T2 sequence (P05067 672-711 limits assumed): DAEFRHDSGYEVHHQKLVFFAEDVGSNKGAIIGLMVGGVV
T1 sequence (P05067 672-713 limits assumed): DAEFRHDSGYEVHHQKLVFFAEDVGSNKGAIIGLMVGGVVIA

CN(C)c1ncc(/C=C\c2nc3cc(OCCF)ccc3[se]2)cn1 [compound 5, (Z)-5-(2-(5-(2-fluoroethoxy)benzo[d][1,3]selenazol-2-yl)vinyl)-N,N-dimethylpyrimidin-2-amine]
Kd [1]: 1.58 ± 0.05 nM
staining of Aβ plaques in hippocampus brain sections ([2]; 100 nM, APP+/−/PS1+/− mice): abundant staining of Aβ plaques
staining of brain sections ([2]; WT mice): no staining
labeling of Aβ plaques in frontal lobe tissue sections ([3]; 2 μM, person with AD): strikingly distinct labeling of Aβ plaques
staining of diffuse plaques ([3]; AD frontal lobe sections): labeling of numerous diffuse Aβ plaques

— publication PMC5090206, “Fluselenamyl: A Novel Benzoselenazole Derivative for PET Detection of Amyloid Plaques (Aβ) in Alzheimer’s Disease” (Scientific Reports, 2016)
